According to ChEMBL document CHEMBL1255414, “Combination of V106I and V179D polymorphic mutations in human immunodeficiency virus type 1 reverse transcriptase confers resistance to efavirenz and nevirapine but not etravirine” (Antimicrob Agents Chemother, 2010):

Assays:
[1] = system: Human immunodeficiency virus 1; assay: Antiviral activity against wild type HIV1 infected in MAGIC-5 cells using 5-bromo4-chloro-3-indolyl-beta-D-galactopyranoside staining based light microscopy; type: functional, organism-based; conditions: Human immunodeficiency virus 1, MAGIC-5
[2] = system: Human immunodeficiency virus 1; assay: Antiviral activity against recombinant HIV1 harboring reverse transcriptase V106A mutant clone infected in MAGIC-5 cells using 5-bromo4-chloro-3-indolyl-beta-D-galactopyranoside staining based light microscopy; type: functional, organism-based; conditions: Human immunodeficiency virus 1, MAGIC-5
[3] = system: Human immunodeficiency virus 1; assay: Antiviral activity against recombinant HIV1 harboring reverse transcriptase V106I mutant clone infected in MAGIC-5 cells using 5-bromo4-chloro-3-indolyl-beta-D-galactopyranoside staining based light microscopy; type: functional, organism-based; conditions: Human immunodeficiency virus 1, MAGIC-5
[4] = system: Human immunodeficiency virus 1; assay: Antiviral activity against recombinant HIV1 harboring reverse transcriptase V179D mutant clone infected in MAGIC-5 cells using 5-bromo4-chloro-3-indolyl-beta-D-galactopyranoside staining based light microscopy; type: functional, organism-based; conditions: Human immunodeficiency virus 1, MAGIC-5
[5] = system: Human immunodeficiency virus 1; assay: Antiviral activity against recombinant HIV1 harboring reverse transcriptase V106A/V179D mutant clone infected in MAGIC-5 cells using 5-bromo4-chloro-3-indolyl-beta-D-galactopyranoside staining based light microscopy; type: functional, organism-based; conditions: Human immunodeficiency virus 1, MAGIC-5
[6] = system: Human immunodeficiency virus 1; assay: Antiviral activity against recombinant HIV1 harboring reverse transcriptase V106I/V179D mutant clone infected in MAGIC-5 cells using 5-bromo4-chloro-3-indolyl-beta-D-galactopyranoside staining based light microscopy; type: functional, organism-based; conditions: Human immunodeficiency virus 1, MAGIC-5
[7] = system: Human immunodeficiency virus 1; assay: Resistance index, ratio of EC50 for recombinant HIV1 harboring reverse transcriptase V106A mutant clone to EC50 for wild type HIV1; type: functional
[8] = system: Human immunodeficiency virus 1; assay: Resistance index, ratio of EC50 for recombinant HIV1 harboring reverse transcriptase V179D mutant clone to EC50 for wild type HIV1; type: functional
[9] = system: Human immunodeficiency virus 1; assay: Resistance index, ratio of EC50 for recombinant HIV1 harboring reverse transcriptase V106A/V179D mutant clone to EC50 for wild type HIV1; type: functional
[10] = system: Human immunodeficiency virus 1; assay: Resistance index, ratio of EC50 for recombinant HIV1 harboring reverse transcriptase V106I/V179D mutant clone to EC50 for wild type HIV1; type: functional
[11] = system: Human immunodeficiency virus 1; assay: Resistance index, ratio of EC50 for recombinant HIV1 harboring reverse transcriptase V106I mutant clone to EC50 for wild type HIV1; type: functional

SMILES: Cc1ccnc2c1NC(=O)c1cccnc1N2C1CC1 [NEVIRAPINE]
- EC50 [1]: 50 nM
- EC50 [2]: 3430 nM
- EC50 [3]: 20 nM
- EC50 [4]: 130 nM
- EC50 [5]: 4530 nM
- EC50 [6]: 370 nM
- Ratio EC50 [7]: 69
- Ratio EC50 [8]: 2.6
- Ratio EC50 [9]: 91
- Ratio EC50 [10]: 7
- Ratio EC50 [11]: 0.4

SMILES: Cc1cc(C#N)cc(C)c1Oc1nc(Nc2ccc(C#N)cc2)nc(N)c1Br [ETRAVIRINE]
- EC50 [1]: 1.2 nM
- EC50 [2]: 0.5 nM
- EC50 [3]: 1.5 nM
- EC50 [4]: 1.9 nM
- EC50 [5]: 1.4 nM
- EC50 [6]: 2.4 nM
- Ratio EC50 [7]: 0.4
- Ratio EC50 [8]: 1.6
- Ratio EC50 [9]: 1.2
- Ratio EC50 [10]: 2
- Ratio EC50 [11]: 1.3

SMILES: O=C1Nc2ccc(Cl)cc2[C@@](C#CC2CC2)(C(F)(F)F)O1 [EFAVIRENZ]
- EC50 [2]: 3 nM
- EC50 [3]: 3 nM
- EC50 [4]: 4 nM
- EC50 [5]: 13 nM
- EC50 [6]: 29 nM
